Laboratory results published in patent US9850227B2 (YUHAN CORPORATION, priority 2011, dated 2017).
Where a name gives a salt, the structure may show the parent alone.

biological target: T1, human 5-HT4(a) (Homo sapiens, UniProt Q13639); experiment: Evaluation of agonistic activity in CHO-K1 cells expressing human 5-HT4(a) (GeneBIAzer HTR4-CRE-bla CHO-K1 cells, beta-lactamase fluorescence ratio, EC50 from 8 concentrations); type: cell-based
T1 construct: host or cells: GeneBIAzer HTR4-CRE-bla CHO-K1 cells
Method in brief: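 HTR4-CRE-bla CHO-K1 cells (10^4 per well, overnight in 1% FBS medium) exposed to compound for 5 h, then beta-lactamase substrate 2 h in the dark. Fluorescence ratio at 465/535 nm after 410 nm excitation; EC50 by non-linear regression over 8 concentrations.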

T1 sequence (Q13639 1-387 isoform Q13639-2): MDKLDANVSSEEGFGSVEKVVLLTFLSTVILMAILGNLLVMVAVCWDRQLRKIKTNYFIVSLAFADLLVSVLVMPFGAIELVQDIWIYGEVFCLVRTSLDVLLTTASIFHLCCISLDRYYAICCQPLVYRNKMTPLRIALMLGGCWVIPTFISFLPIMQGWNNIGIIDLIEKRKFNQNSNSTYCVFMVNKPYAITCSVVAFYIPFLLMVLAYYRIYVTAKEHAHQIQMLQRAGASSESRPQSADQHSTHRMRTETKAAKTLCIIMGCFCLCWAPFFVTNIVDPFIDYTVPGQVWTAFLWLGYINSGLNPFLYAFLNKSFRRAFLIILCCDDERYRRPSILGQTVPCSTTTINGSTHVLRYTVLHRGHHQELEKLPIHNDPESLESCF

EC50 [nM]	Structure (SMILES)
0.0026	CCCCc1cc(N2CCC[C@@H](NC)C2)nc(Nc2ccc(C)c(C#N)c2)n1 [Example 311, (R)-5-({4-butyl-6-[3-(methylamino)piperidin-1-yl]pyrimidin-2-yl}amino)-2-methylbenzonitrile]
0.014	CCCCc1cc(N2CCC[C@@H](NC)C2)nc(Nc2ccc(F)c(C#N)c2)n1 [Example 312, (R)-5-({4-butyl-6-[3-(methylamino)piperidin-1-yl]pyrimidin-2-yl}amino)-2-fluorobenzonitrile]
0.005	CCCCc1cc(N2CCC[C@@H](NC)C2)nc(Nc2cc(N)cc(C(F)(F)F)c2)n1 [Example 313, (R)—N^1-{4-butyl-6-[3-(methylamino)piperidin-1-yl]pyrimidin-2-yl}-5-(trifluoromethyl)benzene-1,3-diamine]
0.0019	CCCCc1cc(N2CCC[C@@H](NC)C2)nc(Nc2ccc(N)c(C(F)(F)F)c2)n1 [Example 314, (R)—N^1-{4-butyl-6-[3-(methylamino)piperidin-1-yl]pyrimidin-2-yl}-3-(trifluoromethyl)benzene-1,4-diamine]
0.0012	CCCCc1cc(N2CCC[C@@H](NC)C2)nc(Nc2cc(N)cc(C#N)c2)n1 [Example 315, (R)-3-amino-5-({4-butyl-6-[3-(methylamino)piperidin-1-yl]pyrimidin-2-yl}amino)benzonitrile]
0.0067	CCCCc1cc(N2CCC[C@@H](NC)C2)nc(Nc2ccc(N)c(C#N)c2)n1 [Example 316, (R)-2-amino-5-({4-butyl-6-[3-(methylamino)piperidin-1-yl]pyrimidin-2-yl}amino)benzonitrile]
0.0066	CCCCc1cc(N2CCC[C@@H](NC)C2)nc(Nc2ccc(F)c(N)c2)n1 [Example 317, (R)—N^1-{4-butyl-6-[3-(methylamino)piperidin-1-yl]pyrimidin-2-yl}-4-fluorobenzene-1,3-diamine]
0.025	CCCCc1cc(N2CCC[C@@H](NC)C2)nc(Nc2ccc(C)c(OC)c2)n1 [Example 318, (R)-4-butyl-N-(3-methoxy-4-methylphenyl)-6-[3-(methylamino)piperidin-1-yl]pyrimidin-2-amine]
0.0047	CCCCc1cc(N2CCC[C@@H](NC)C2)nc(Nc2ccc(C)c(N)c2)n1 [Example 319, (R)—N^1-{4-butyl-6-[3-(methylamino)piperidin-1-yl]pyrimidin-2-yl}-4-methylbenzene-1,3-diamine]
0.018	CCCCc1cc(N2CCC[C@@H](NC)C2)nc(Nc2ccc(F)c(C(F)(F)F)c2)n1 [Example 320, (R)-4-butyl-N-[4-fluoro-3-(trifluoromethyl)phenyl]-6-[3-(methylamino)piperidin-1-yl]pyrimidin-2-amine]
0.0031	CCCc1cc(N2CCC[C@@H](NC)C2)nc(Nc2ccc(N)c([N+](=O)[O-])c2)n1 [Example 321, (R)—N^1-{4-[3-(methylamino)piperidin-1-yl]-6-propylpyrimidin-2-yl}-3-nitrobenzene-1,4-diamine dihydrochloride]
0.243	CCCc1cc(N2CCC[C@@H](NC)C2)nc(Nc2ccc(C)c(C)c2)n1 [Example 322, (R)—N-(3,4-dimethylphenyl)-4-[3-(methylamino)piperidin-1-yl]-6-propylpyrimidin-2-amine]
0.416	CCCc1cc(N2CCC[C@@H](NC)C2)nc(Nc2ccc(C)c(F)c2)n1 [Example 323, (R)—N-(3-fluoro-4-methylphenyl)-4-[3-(methylamino)piperidin-1-yl]-6-propylpyrimidin-2-amine]
0.0087	CCCc1cc(N2CCC[C@@H](NC)C2)nc(Nc2ccc(C)c(C(F)(F)F)c2)n1 [Example 324, (R)—N-[4-methyl-3-(trifluoromethyl)phenyl]-4-[3-(methylamino)piperidin-1-yl]-6-propylpyrimidin-2-amine]
0.0029	CCCCc1cc(N2CCC[C@@H](NC)C2)nc(Nc2ccc(N)c([N+](=O)[O-])c2)n1 [Example 328, (R)—N^1-{4-butyl-6-[3-(methylamino)piperidin-1-yl]pyrimidin-2-yl}-3-nitrobenzene-1,4-diamine dihydrochloride]
0.054	CCCCc1cc(N2CCC[C@@H](NC)C2)nc(Nc2cccc(C#N)c2)n1 [Example 329, (R)-3-({4-butyl-6-[3-(methylamino)piperidin-1-yl]pyrimidin-2-yl}amino)benzonitrile]
0.086	CCCCc1cc(N2CCC[C@@H](NC)C2)nc(Nc2ccc(C)c(C)c2)n1 [Example 330, (R)-4-butyl-N-(3,4-dimethylphenyl)-6-[3-(methylamino)piperidin-1-yl]pyrimidin-2-amine]
0.218	CCCCc1cc(N2CCC[C@@H](NC)C2)nc(Nc2ccc(C)c(F)c2)n1 [Example 331, (R)-4-butyl-N-(3-fluoro-4-methylphenyl)-6-[3-(methylamino)piperidin-1-yl]pyrimidin-2-amine]

EC50 [nM]	Structure (SMILES)
0.017	CCCCc1cc(N2CCC[C@@H](NC)C2)nc(Nc2ccc(C)c(C(F)(F)F)c2)n1 [Example 332, (R)-4-butyl-N-[4-methyl-3-(trifluoromethyl)phenyl]-6-[3-(methylamino)piperidin-1-yl]pyrimidin-2-amine]
0.132	CCCCc1cc(N2CCC[C@@H](NC)C2)nc(Nc2ccc(OC)c(N)c2)n1 [Example 333, (R)—N^1-{4-butyl-6-[3-(methylamino)piperidin-1-yl]pyrimidin-2-yl}-4-methoxybenzene-1,3-diamine]
0.006	CCCCc1cc(N2CCC[C@@H](N)C2)nc(Nc2ccc(N)c([N+](=O)[O-])c2)n1 [Example 337, (R)—N^1-[4-(3-aminopiperidin-1-yl)-6-butylpyrimidin-2-yl]-3-nitrobenzene-1,4-diamine dihydrochloride]
0.014	CCCCc1cc(N2CCC[C@@H](N)C2)nc(Nc2ccc(F)c([N+](=O)[O-])c2)n1 [Example 338, (R)-4-(3-aminopiperidin-1-yl)-6-butyl-N-(4-fluoro-3-nitrophenyl)pyrimidin-2-amine]
0.017	CCCCc1cc(N2CCC[C@@H](N)C2)nc(Nc2ccc(C)c([N+](=O)[O-])c2)n1 [Example 339, (R)-4-(3-aminopiperidin-1-yl)-6-butyl-N-(4-methyl-3-nitrophenyl)pyrimidin-2-amine]
0.112	CCCCc1cc(N2CCC[C@@H](N)C2)nc(Nc2ccc(N)c(C(F)(F)F)c2)n1 [Example 340, (R)—N^1-[4-(3-aminopiperidin-1-yl)-6-butylpyrimidin-2-yl]-3-(trifluoromethyl)benzene-1,4-diamine]
0.0041	CCCCc1cc(N2CCC[C@@H](N)C2)nc(Nc2cc(N)cc(C#N)c2)n1 [Example 342, (R)-3-amino-5-{[4-(3-aminopiperidin-1-yl)-6-butylpyrimidin-2-yl]amino}benzonitrile]
0.034	CCCCc1cc(N2CCC[C@@H](N)C2)nc(Nc2ccc(C)c(C(F)(F)F)c2)n1 [Example 343, (R)-4-(3-aminopiperidin-1-yl)-6-butyl-N-[4-methyl-3-(trifluoromethyl)phenyl]pyrimidin-2-amine]
0.448	CCCCc1cc(N2CCC[C@@H](N)C2)nc(Nc2ccc(C)c(F)c2)n1 [Example 344, (R)-4-(3-aminopiperidin-1-yl)-6-butyl-N-(3-fluoro-4-methylphenyl)pyrimidin-2-amine]
0.08	CCCCc1cc(N2CCC[C@@H](N)C2)nc(Nc2ccc(C)c(OC)c2)n1 [Example 345, (R)-4-(3-aminopiperidin-1-yl)-6-butyl-N-(3-methoxy-4-methylphenyl)pyrimidin-2-amine]
0.135	CCCCc1cc(N2CCC[C@@H](N)C2)nc(Nc2ccc(C)c(N)c2)n1 [Example 346, (R)—N^1-[4-(3-aminopiperidin-1-yl)-6-butylpyrimidin-2-yl]-4-methylbenzene-1,3-diamine]
0.391	CCCCc1cc(N2CCC[C@@H](N)C2)nc(Nc2ccc(C)c(C)c2)n1 [Example 347, (R)-4-(3-aminopiperidin-1-yl)-6-butyl-N-(3,4-dimethylphenyl)pyrimidin-2-amine]
0.102	CCCCc1cc(N2CCC[C@@H](N)C2)nc(Nc2ccc(F)c(C(F)(F)F)c2)n1 [Example 348, (R)-4-(3-aminopiperidin-1-yl)-6-butyl-N-[4-fluoro-3-(trifluoromethyl)phenyl]pyrimidin-2-amine]
0.014	CCCCc1cc(N2CCC[C@@H](N)C2)nc(Nc2ccc(F)c(N)c2)n1 [Example 349, (R)—N^1-[4-(3-aminopiperidin-1-yl)-6-butylpyrimidin-2-yl]-4-fluorobenzene-1,3-diamine]
0.028	CCCCc1cc(N2CCC[C@@H](N)C2)nc(Nc2ccc(N)c(C#N)c2)n1 [Example 350, (R)-2-amino-5-{[4-(3-aminopiperidin-1-yl)-6-butylpyrimidin-2-yl]amino}benzonitrile]
0.029	CCCCc1cc(N2CCC[C@@H](N)C2)nc(Nc2ccc(N)cc2)n1 [Example 352, (R)—N^1-[4-(3-aminopiperidin-1-yl)-6-butylpyrimidin-2-yl]benzene-1,4-diamine]
0.337	CCCCc1cc(N2CCC[C@@H](N)C2)nc(Nc2ccc(Cl)c([N+](=O)[O-])c2)n1 [Example 353, (R)-4-(3-aminopiperidin-1-yl)-6-butyl-N-(4-chloro-3-nitrophenyl)pyrimidin-2-amine]
